Measurements published in publication PMC11990879, “Anticandidal Activity of Lipopeptides Containing an LL-37-Derived Peptide Fragment KR12” (Molecules, 2025).
Values after ≈ are worked out from the molar mass of the structure shown. Like-named read-outs stand apart in the source and are kept apart here. Marks after values point to notes of the source that are not given here. Where a SMILES comes first, the peptide text is derived from it. The star is where a group is joined. Myristoyl = CCCCCCCCCCCCCC(=O)*; Lauroyl = CCCCCCCCCCCC(=O)*; Octanoyl = CCCCCCCC(=O)*; X1 = CCCCCCC(CCCC)C(=O)*

How the values were obtained:
[1] = tested on: C. albicans biofilms cultured on polystyrene; assay type: cell-based, Candida albicans
Experimental: (§1) Fungal strains were purchased from the Polish Collection of Microorganisms (Polish Academy of Science, Wroclaw, Poland). Four reference strains of Candida (C. albicans ATCC 10231, C. glabrata ATCC 15126, C. lypolytica PCM 2680, and C. tropicalis PCM 2680) were cultured on the Dextrose Sabouraud Agar (DSA, Neogen, Lansing, MI, USA). Before performing the assays, the fungi were cultured in a Sabouraud dextrose broth (DSB, Neogen, Lansing, MI, USA) for 48 h under aerobic conditions at 25 °C. Afterward, the fungal cultures were centrifuged (2500 rpm, 10 min) and resuspended in the appropriate liquid medium for appropriate inoculums for the performed assays.
Fungal suspensions in DSB were added to the wells at initial inoculums of ca. 5 × 10^6 CFU/mL and incubated under aerobic conditions, at 25 °C for 24 h, 48 h, and 72 h, in order to grow candidal biofilms of different maturity. After the appropriate time of incubation, the wells were washed with phosphoric buffered (PBS), and fresh RPMI medium supplemented with antifungals and the lipopeptides at graded concentrations (range […]) were added. The fungal biofilms were exposed to the compounds for 24 h (aerobic conditions, 25 °C). After the exposure to antifungals, the content of the wells was aspirated and a 0.01% solution of resazurin (Sigma-Aldrich, St. Louis, MO, USA) in DSB was added. Resazurin (blue) was applied as a cell viability reagent, which upon contact with living cells is reduced to a pink resorufin. The samples with the dye were incubated for 1 h at 25 °C and the absorbance was measured at 570 and 600 nm with a microplate reader (Thermo Fisher Scientific, Waltham, MA, USA). The assays were performed four times on four different days. The results are presented as the means of the measured percentage of metabolic activity (MA) of fungi in the well when compared with positive (sample with Candida in DSB) and negative controls (pure DSB), which were taken as 100% and 0%, respectively. The MA of Candida in the samples was measured according to the following formula:MA(%) = (ΔAbs of sample − ΔAbs of negative control)/(ΔAbs of positive control − ΔAbs of negative control);(1) ΔAbs = absorbance at 570 nm − absorbance at 600 nm.(2)
The MBEC was taken as the lowest concentration of antifungal which allowed us to reduce the metabolism of fungal cells to 10% (or less) of the positive control.

[2] = tested on: Candida strains (C. albicans, C. glabrata, C. lipolytica, C. tropicalis); assay type: cell-based; settings: for MIC, range over the tested strains: 48 h
Experimental: as §1
(§2) The strains cultured described in Section 4.1 were suspended in the Roswell Park Memorial Institute 1640 Medium (RPMI, Sigma-Aldrich, St. Louis, MO, USA) at an initial inoculum of ca. 5 × 10^3 CFU/mL. The stock solutions (1024 mg/L) of tested compounds in RPMI were added to 96-well polystyrene plates and diluted serially to well no. 10, leaving wells 11 and 12 for fertility and sterility controls. The tested Candida strains were exposed to graded concentrations (range 0.5–256 mg/L) of the lipopeptides and conventional antifungals (benzalkonium chloride, fluconazole, and nystatin) for 48 h under aerobic conditions at 25 °C. After incubation, the results were read visually.
(§3) Then the results were read visually. Both MIC as well as the MFC assays were performed threetimes on three different days.

human red blood cells = settings: cited from earlier work
Excerpt: Table 2 Minimum inhibitory concentrations (MIC) and minimum fungicidal concentrations (MFC) determined for peptides and reference antifungals [g/L]. The highest antimicrobial activity is marked in green, medium values in yellow, while the weakest antifungal activity is marked in red. Minimum hemolytic concentration (MHC5%—causing hemolysis of 5% of human red blood cells) determined in previous stu | column: MHC5%

[3] = tested on: Staphylococcus aureus biofilm; settings: previous study; ref [21]; cited from earlier work
Excerpt: Lipidation has proven to be an effective strategy for improving the microbiological properties of the KR12-NH2 peptide. […] The influence of the structure of substituted fatty acids as well as the lipidation pattern was noticed. Among derivatives containing linear fatty acid residues, an analog with octanoic acid turned out to be the most promising antibacterial agent. The C8-KR12-NH2 peptide (compound IV) inhibited the growth of both Gram-p ...

[4] = tested on: C. albicans biofilms cultured on polystyrene; assay type: cell-based, Candida albicans; settings: C. albicans biofilms of 24, 48 and 72 h, up to 512 mg/L
C. albicans ATCC 10231 [5] = assay: microbe, parasite or virus in culture; assay type: cell-based, Candida albicans; settings: Candida albicans, ATCC10231; C. albicans; RPMI 1640, inoculum ca. 5 × 10^3 CFU/mL, range 0.5–256 mg/L, 48 h, 25 °C, read visually, three times on three days; read-out: Minimum inhibitory concentration (MIC), C. albicans
Experimental: as §1, §2

C. albicans ATCC 10231 [6] = assay: microbe, parasite or virus in culture; assay type: cell-based, Candida albicans; settings: Candida albicans, ATCC10231, MIC wells and two higher concentrations seeded on DSA, 48 h, 25 °C, read visually, three times, read-out: Minimum fungicidal concentration (MFC), C. albicans
Experimental: as §1, §2, §3

C. glabrata ATCC 15126 [7] = assay: microbe, parasite or virus in culture; assay type: cell-based, Candida glabrata; settings: Nakaseomyces glabratus, ATCC15126; first C. glabrata column; RPMI 1640, inoculum ca. 5 × 10^3 CFU/mL, range 0.5–256 mg/L, 48 h, 25 °C, read visually, three times on three days; read-out: Minimum inhibitory concentration (MIC), C. glabrata
Experimental: as §1, §2

C. glabrata ATCC 15126 [8] = assay: microbe, parasite or virus in culture; assay type: cell-based, Candida glabrata; settings: Nakaseomyces glabratus, ATCC15126, MIC wells and two higher concentrations seeded on DSA, 48 h, 25 °C, read visually, three times, read-out: Minimum fungicidal concentration (MFC), C. glabrata
Experimental: as §1, §2, §3

C. lypolytica PCM 2680 [9] = assay: microbe, parasite or virus in culture; assay type: cell-based, Candida lipolytica; settings: Yarrowia lipolytica, PCM2680, RPMI 1640, inoculum ca. 5 × 10^3 CFU/mL, range 0.5–256 mg/L, 48 h, 25 °C, read visually, three times on three days, read-out: Minimum inhibitory concentration (MIC), C. lipolytica
Experimental: as §1, §2

C. lypolytica PCM 2680 [10] = assay: microbe, parasite or virus in culture; assay type: cell-based, Candida lipolytica; settings: Yarrowia lipolytica, PCM2680, MIC wells and two higher concentrations seeded on DSA, 48 h, 25 °C, read visually, three times, read-out: Minimum fungicidal concentration (MFC), C. lipolytica
Experimental: as §1, §2, §3

C. tropicalis PCM 2680 [11] = assay: microbe, parasite or virus in culture; assay type: cell-based, Candida tropicalis; settings: Candida tropicalis, PCM2680; C. tropicalis; RPMI 1640, inoculum ca. 5 × 10^3 CFU/mL, range 0.5–256 mg/L, 48 h, 25 °C, read visually, three times on three days; read-out: Minimum inhibitory concentration (MIC), C. tropicalis
Experimental: as §1, §2

C. tropicalis PCM 2680 [12] = assay: microbe, parasite or virus in culture; assay type: cell-based, Candida tropicalis; settings: Candida tropicalis, PCM2680, MIC wells and two higher concentrations seeded on DSA, 48 h, 25 °C, read visually, three times, read-out: Minimum fungicidal concentration (MFC), C. tropicalis
Experimental: as §1, §2, §3

[13] = biofilms cultured on polystyrene, 24 h
[14] = biofilms cultured on polystyrene, 48 h
[15] = biofilms cultured on polystyrene, 72 h

SMILES | MBEC 24 h [1, 13] | MBEC 48 h [1, 14] | MBEC 72 h [1, 15] | MIC, range over the tested strains [2] [µg/mL] | MHC5% (minimum hemolytic concentration causing hemolysis of 5% of human red blood cells) (human red blood cells) [g/L] | MBEC against Staphylococcus aureus biofilm [3] [mg/L] | Antibiofilm activity against any type of biofilm [4] | also measured
CCCCCCCCCCCC(=O)N[C@@H](CCCCN)C(=O)N[C@@H](CCCNC(=N)N)C(=O)N[C@H](C(=O)N[C@H](C(=O)N[C@@H](CCC(N)=O)C(=O)N[C@@H](CCCNC(=N)N)C(=O)N[C@H](C(=O)N[C@@H](CCCCN)C(=O)N[C@@H](CC(=O)O)C(=O)N[C@@H](Cc1ccccc1)C(=O)N[C@@H](CC(C)C)C(=O)N[C@@H](CCCNC(=N)N)C(N)=O)[C@@H](C)CC)C(C)C)[C@@H](C)CC [VI, C12-KR12-NH2] (Lauroyl-KRIVQRIKDFLR-NH2) | 512 mg/L | >512 * mg/L | >512 * mg/L | 4 to 8 | 4 | 64 to 256 |  | 
CCCCCCCCCCCCCC(=O)N[C@@H](CCCCN)C(=O)N[C@@H](CCCNC(=N)N)C(=O)N[C@H](C(=O)N[C@H](C(=O)N[C@@H](CCC(N)=O)C(=O)N[C@@H](CCCNC(=N)N)C(=O)N[C@H](C(=O)N[C@@H](CCCCN)C(=O)N[C@@H](CC(=O)O)C(=O)N[C@@H](Cc1ccccc1)C(=O)N[C@@H](CC(C)C)C(=O)N[C@@H](CCCNC(=N)N)C(N)=O)[C@@H](C)CC)C(C)C)[C@@H](C)CC [VII, C14-KR12-NH2] (Myristoyl-KRIVQRIKDFLR-NH2) | 256 mg/L | 256 mg/L | 512 mg/L | 4 to 8 | 4 | 64 to 256 |  | 
CCCCCCC(CCCC)C(=O)N[C@@H](CCCCN)C(=O)N[C@@H](CCCNC(=N)N)C(=O)N[C@H](C(=O)N[C@H](C(=O)N[C@@H](CCC(N)=O)C(=O)N[C@@H](CCCNC(=N)N)C(=O)N[C@H](C(=O)N[C@@H](CCCCN)C(=O)N[C@@H](CC(=O)O)C(=O)N[C@@H](Cc1ccccc1)C(=O)N[C@@H](CC(C)C)C(=O)N[C@@H](CCCNC(=N)N)C(N)=O)[C@@H](C)CC)C(C)C)[C@@H](C)CC (stereo partly drawn) [XIX, 2-Butyloctanoic acid-KR12-NH2] (X1-KRIVQRIKDFLR-NH2) | >512 * mg/L | >512 * mg/L | >512 * mg/L | 4 to 16 | 16 |  | did not exhibit antibiofilm activity | 
CCCCCCCC(=O)N[C@@H](CCCCN)C(=O)N[C@@H](CCCNC(=N)N)C(=O)N[C@H](C(=O)N[C@H](C(=O)N[C@@H](CCC(N)=O)C(=O)N[C@@H](CCCNC(=N)N)C(=O)N[C@H](C(=O)N[C@@H](CCCCN)C(=O)N[C@@H](CC(=O)O)C(=O)N[C@@H](Cc1ccccc1)C(=O)N[C@@H](CC(C)C)C(=O)N[C@@H](CCCNC(=N)N)C(N)=O)[C@@H](C)CC)C(C)C)[C@@H](C)CC [IV, C8-KR12-NH2] (Octanoyl-KRIVQRIKDFLR-NH2) |  |  |  |  | 64 | 4 to 16 |  | 
OC(Cn1cncn1)(Cn1cncn1)c1ccc(F)cc1F [Fluconazole, fluconazole, reference compound] |  |  |  |  |  |  | showed no antibiofilm activity | MIC (C. albicans ATCC 10231 [5]): 4000 µg/mL (≈ 13.1 mM); MFC (C. albicans ATCC 10231 [6]): 8000 µg/mL (≈ 26.1 mM); MIC (C. glabrata ATCC 15126 [7]): 500 µg/mL (≈ 1.63 mM); MFC (C. glabrata ATCC 15126 [8]): 2000 µg/mL (≈ 6.53 mM); MIC (C. lypolytica PCM 2680 [9]): 2000 µg/mL (≈ 6.53 mM); MFC (C. lypolytica PCM 2680 [10]): 8000 µg/mL (≈ 26.1 mM); MIC (C. tropicalis PCM 2680 [11]): 2000 µg/mL (≈ 6.53 mM); MFC (C. tropicalis PCM 2680 [12]): 8000 µg/mL (≈ 26.1 mM); MBEC 24 h ([1]; C. albicans biofilm cultured on polystyrene for 24 h, exposure 24 h, 25 °C, RPMI, resazurin, metabolic activity reduced to 10% or less, four times on four days): >512 * mg/L; MBEC 48 h ([1]; C. albicans biofilm cultured on polystyrene for 48 h, exposure 24 h, 25 °C, RPMI, resazurin, metabolic activity reduced to 10% or less, four times on four days): >512 * mg/L; MBEC 72 h ([1]; C. albicans biofilm cultured on polystyrene for 72 h, exposure 24 h, 25 °C, RPMI, resazurin, metabolic activity reduced to 10% or less, four times on four days): >512 * mg/L; Fungicidal activity (MFC relative to MIC) ([2]; MFCs equal to or twice as high as the corresponding MICs): fungicidal activity against C. albicans and C. glabrata
